Experimental data as given in ChEMBL document CHEMBL3853262 (Medchemcomm, 2016).
Activity calls are given as the source filed them. The calls are words filed in the database; no cut-off is given here.

How the values were obtained:
NTERA-2-cl-D1 [1] = assay: Proapoptotic activity in human NT2/D1 cells assessed as early apoptotic cells at 25 uM after 3 hrs by annexin V/propidium iodide staining-based capillary cytometric method relative to control; format: functional
NTERA-2-cl-D1 [2] = assay: Proapoptotic activity in human NT2/D1 cells assessed as viable cells at 25 uM after 7 hrs by annexin V/propidium iodide staining-based capillary cytometric method relative to control; format: functional; details: NTERA-2-cl-D1, 7 h, read-out: Activity
THP-1 [3] = assay: Proapoptotic activity in human THP1 cells assessed as viable cells at 25 uM after 1 hr by annexin V/propidium iodide staining-based capillary cytometric method relative to control; format: functional; details: THP-1, 1 h, read-out: Activity
NTERA-2-cl-D1 [4] = assay: Proapoptotic activity in human NT2/D1 cells assessed as necrotic cells at 25 uM after 3 hrs by annexin V/propidium iodide staining-based capillary cytometric method relative to control; format: functional
NTERA-2-cl-D1 [5] = assay: Proapoptotic activity in human NT2/D1 cells assessed as late apoptotic cells at 25 uM after 7 hrs by annexin V/propidium iodide staining-based capillary cytometric method relative to control; format: functional
THP-1 [6] = assay: Proapoptotic activity in human THP1 cells assessed as early apoptotic cells at 25 uM after 7 hrs by annexin V/propidium iodide staining-based capillary cytometric method relative to control; format: functional
NTERA-2-cl-D1 [7] = assay: Proapoptotic activity in human NT2/D1 cells assessed as viable cells at 25 uM after 1 hr by annexin V/propidium iodide staining-based capillary cytometric method relative to control; format: functional; details: NTERA-2-cl-D1, 1 h, read-out: Activity
NTERA-2-cl-D1 [8] = assay: Proapoptotic activity in human NT2/D1 cells assessed as early apoptotic cells at 25 uM after 1 hr by annexin V/propidium iodide staining-based capillary cytometric method relative to control; format: functional
THP-1 [9] = assay: Induction of apoptosis in human THP1 cells assessed as activation of caspase 8/9 at 25 uM by 7-AAD staining-based capillary cytometric method; format: functional, cell-based
NTERA-2-cl-D1 [10] = assay: Proapoptotic activity in human NT2/D1 cells assessed as necrotic cells at 25 uM after 1 hr by annexin V/propidium iodide staining-based capillary cytometric method relative to control; format: functional
THP-1 [11] = assay: Induction of apoptosis in human THP1 cells assessed as late apoptotic cells at 25 uM after 4 hrs in presence of pan caspase inhibitor Z-VAD-fmk by annexin V/propidium iodide staining-based capillary cytometric method (reference value: 0.34%); format: functional
THP-1 [12] = assay: Proapoptotic activity in human THP1 cells assessed as viable cells at 25 uM after 3 hrs by annexin V/propidium iodide staining-based capillary cytometric method relative to control; format: functional; details: THP-1, 3 h, read-out: Activity
THP-1 [13] = assay: Proapoptotic activity in human THP1 cells assessed as necrotic cells at 25 uM after 7 hrs by annexin V/propidium iodide staining-based capillary cytometric method relative to control; format: functional
NTERA-2-cl-D1 [14] = assay: Induction of apoptosis in human NT2/D1 cells assessed as early apoptotic cells at 25 uM after 4 hrs in presence of pan caspase inhibitor Z-VAD-fmk by annexin V/propidium iodide staining-based capillary cytometric method (reference value: 3.40%); format: functional
NTERA-2-cl-D1 [15] = assay: Induction of apoptosis in human NT2/D1 cells assessed as viable cells at 25 uM after 4 hrs in presence of pan caspase inhibitor Z-VAD-fmk by annexin V/propidium iodide staining-based capillary cytometric method (reference value: 95.80%); format: functional; details: NTERA-2-cl-D1, 4 h, read-out: Activity
THP-1 [16] = assay: Induction of apoptosis in human THP1 cells assessed as activation of caspase 3/7 by measuring DNA fragmentation at 25 uM after 3 hrs by 7-AAD staining-based capillary cytometric method; format: functional, cell-based
THP-1 [17] = assay: Induction of apoptosis in human THP1 cells assessed as late necrotic cells at 25 uM after 4 hrs in presence of pan caspase inhibitor Z-VAD-fmk by annexin V/propidium iodide staining-based capillary cytometric method (reference value: 0.04%); format: functional
THP-1 [18] = assay: Proapoptotic activity in human THP1 cells assessed as viable cells at 25 uM after 7 hrs by annexin V/propidium iodide staining-based capillary cytometric method relative to control; format: functional; details: THP-1, 7 h, read-out: Activity
NTERA-2-cl-D1 [19] = assay: Proapoptotic activity in human NT2/D1 cells assessed as necrotic cells at 25 uM after 7 hrs by annexin V/propidium iodide staining-based capillary cytometric method relative to control; format: functional
THP-1 [20] = assay: Proapoptotic activity in human THP1 cells assessed as viable cells at 25 uM after 5 hrs by annexin V/propidium iodide staining-based capillary cytometric method relative to control; format: functional; details: THP-1, 5 h, read-out: Activity
THP-1 [21] = assay: Induction of apoptosis in human THP1 cells assessed as […] cells at 25 uM after 4 hrs in presence of pan caspase inhibitor Z-VAD-fmk by annexin V/propidium iodide staining-based capillary cytometric method (reference value: 96.40%); format: functional
NTERA-2-cl-D1 [22] = assay: Proapoptotic activity in human NT2/D1 cells assessed as early apoptotic cells at 25 uM after 5 hrs by annexin V/propidium iodide staining-based capillary cytometric method relative to control; format: functional
BXPC-3 = assay: Proapoptotic activity in human BxPC3 cells by annexin V-FITC/propidium iodide staining-based capillary cytometric method; format: functional, cell-based
THP-1 [23] = assay: Proapoptotic activity in human THP1 cells assessed as late apoptotic cells at 25 uM after 5 hrs by annexin V/propidium iodide staining-based capillary cytometric method relative to control; format: functional
NTERA-2-cl-D1 [24] = assay: Induction of apoptosis in human NT2/D1 cells assessed as viable cells at 25 uM after 4 hrs by annexin V/propidium iodide staining-based capillary cytometric method (reference value: 95.80%); format: functional; details: NTERA-2-cl-D1, 4 h, read-out: Activity
NTERA-2-cl-D1 [25] = assay: Induction of DNA fragmentation in human NT2/D1 cells at 25 uM after 6 to 24 hrs by propidium iodide/RNase staining-based capillary cytometric method; format: functional, cell-based
NTERA-2-cl-D1 [26] = assay: Proapoptotic activity in human NT2/D1 cells assessed as viable cells at 25 uM after 5 hrs by annexin V/propidium iodide staining-based capillary cytometric method relative to control; format: functional; details: NTERA-2-cl-D1, 5 h, read-out: Activity
NTERA-2-cl-D1 [27] = assay: Proapoptotic activity in human NT2/D1 cells assessed as viable cells at 25 uM after 3 hrs by annexin V/propidium iodide staining-based capillary cytometric method relative to control; format: functional; details: NTERA-2-cl-D1, 3 h, read-out: Activity
NTERA-2-cl-D1 [28] = assay: Proapoptotic activity in human NT2/D1 cells assessed as late apoptotic cells at 25 uM after 1 hr by annexin V/propidium iodide staining-based capillary cytometric method relative to control; format: functional

EC50 (BXPC-3): 58 µM
Structure (SMILES): CNc1nc(-c2cccc(NC(=O)c3cc4ccccc4[nH]3)c2)c[nH]1.Cl
Activity (NTERA-2-cl-D1 [1]): 22.77%
viability at 25 µM (NTERA-2-cl-D1 [2]): 31.2%
viability at 25 µM (THP-1 [3]): 95.7%
Activity (NTERA-2-cl-D1 [4]): 0.11%
Activity (NTERA-2-cl-D1 [5]): 13.18%
Activity (THP-1 [6]): 36.14%
viability at 25 µM (NTERA-2-cl-D1 [7]): 87.7%
Activity (NTERA-2-cl-D1 [8]): 8.6%
Activity (THP-1 [9]): Active
Activity (NTERA-2-cl-D1 [10]): 0.11%
Activity (THP-1 [11]): 17.2%
viability at 25 µM (THP-1 [12]): 77.3%
Activity (THP-1 [13]): 0.2%
Activity (NTERA-2-cl-D1 [14]): 8.15%
viability at 25 µM (NTERA-2-cl-D1 [15]): 88.8%
Activity (THP-1 [16]): Active
Activity (THP-1 [17]): 0.1%
viability at 25 µM (THP-1 [18]): 17.8%
Activity (NTERA-2-cl-D1 [19]): 0%
viability at 25 µM (THP-1 [20]): 28.6%
Activity (THP-1 [21]): 18.04%
Activity (NTERA-2-cl-D1 [22]): 46.36%
Activity (THP-1 [23]): 38.05%
viability at 25 µM (NTERA-2-cl-D1 [24]): 70.7%
Activity (NTERA-2-cl-D1 [25]): Active
viability at 25 µM (NTERA-2-cl-D1 [26]): 47%
viability at 25 µM (NTERA-2-cl-D1 [27]): 73.9%
Activity (NTERA-2-cl-D1 [28]): 3.59%
